Key:
PD-seeded fibrils = PD-seeded fibrils (Homo sapiens (Human), UniProt P37840); experiment: Heterologous competition binding assay with [18F]TZ61-44 as radioligand; conditions: radioligand [18F]TZ61-44, 25 nM PD-seeded fibrils
Procedure: The equilibrium inhibitor constant (Ki) of a series of compounds was measured using heterologous radioactive binding assays with [^18F]TZ61-44, […], or [^125I]TZ61-84 as the screening radioligands. EC50 values for each compound were determined by fitting the data to the equation Y=Bottom+(Top−Bottom)/(1+(X−Log EC50)^−Hillcoefficient) using nonlinear regression by Kaleidagraph software, where Top and Bottom are the Y values for the top and bottom plateaus of the binding curve. The Ki values were derived from the EC50 values using the Cheng-Prusoff equation: Ki=EC50/(1+[radioligand]/Kd). FIGS. 5A-5E show the inhibition curves for TG-1-90B, TZ55-101, TZ61-84, TZ55-107, and TZ55-81 using [^18F]TZ61-44 as the radioligand. FIG. 11B-C show the inhibition curves for two separate experiments on PD fibrils for TZ55-101 using […] as the radioligand. FIGS. 12A-12F show the inhibition curves for TZ66-3, TZ64-015, TZ64-016, TZ64-018, TZ64-019, and TZ64-020 using [^18F]TZ61-44 as the radioligand. FIGS. 13A-13D show the inhibition curves for TZ66-9, TZ66-8, and TZ55-107 using [^18F]TZ61-44 as the radioligand.

[1] = target: Banner PD-seeded α-synuclein fibrils (Homo sapiens (Human), UniProt P37840); experiment: Homologous competition radioligand binding assay, PD-seeded fibrils; conditions: 150 nM Banner PD seeded fibrils
Procedure: The equilibrium dissociation constant (Kd) for a series of compounds was determined using direct radioactive competitive binding assays (homologous or heterologous) with either recombinant α-synuclein fibrils or brain tissue homogenates from AD cases.
Recombinant protein was produced in E. coli using protocols based on previously described methods for α-synuclein [Giasson, B. I., et al., “Mutant and wild type human alpha-synucleins assemble into elongated filaments with distinct morphologies in vitro,” 1999, J Biol. Chem., 274:7619-7622; Huang, C., et al., “A new method for purification of recombinant human alpha-synuclein in Escherichia coli,” 2005, Protein Expr Purif, 42:173-177; Yu, L., et al, “Synthesis and in vitro evaluation of á-synuclein ligands,” 2012, Bioorg. Med. Chem., 20:4625-4634] and tau [Li, W., et al., “Characterization of two VQIXXK motifs for tau fibrillization in vitro,” 2006, Biochemistry, 45:15692-15701]. BL21(DE3)RIL E. coli were transformed with a pRK172 bacterial expression plasmid containing the human α-synuclein coding sequence. […]. Overnight cultures were centrifuged at 3,900×g for 10 min at 25° C. and the bacterial pellets were resuspended by gentle vortexing in 20 ml osmotic shock buffer (30 mM Tris-HCl, 2 mM EDTA, 40% Sucrose, pH 7.2) and then incubated at room temperature for 10 min. The cell suspension was then centrifuged at 8,000×g for 10 min at 25° C. and the pellet was resuspended in 22.5 ml cold H2O before adding 9.4 μl 2 M MgCl2 to each tube. The suspension was incubated on ice for 3 min prior to centrifugation at 20,000×g for 15 min at 4° C. After the supernatant was transferred to a fresh tube, streptomycin was added to a final concentration of 10 mg/ml and centrifuged at 20,000×g for 15 min at 4° C. The supernatant from this step was collected and dithiothreitol (DTT) and Tris-HCl pH 8.0 were added to final concentrations of 1 mM and 20 mM respectively, before boiling for 10 min to precipitate heat-sensitive proteins, which were pelleted at 20,000×g for 15 min at 4° C. The supernatant was collected and filtered through a 0.45 μm surfactant-free cellulose acetate filter (Corning) before loading onto a 1 ml DEAE Sepharose column equilibrated in 20 mM Tris-HCl pH 8.0, 1 mM EDTA, and 1 mM DTT. The DEAE column was washed with 20 mM Tris-HCl pH 8.0, 1 mM EDTA, 1 mM DTT before eluting α-synuclein protein in 20 mM Tris-HCl pH 8.0 buffer with 1 mM EDTA, 1 mM DTT and 0.3 M NaCl. Purified α-synuclein protein was dialyzed overnight in 10 mM Tris-HCl pH 7.6, 50 mM NaCl, 1 mM DTT.
Purified recombinant α-synuclein monomer (2 mg/ml) was incubated in 20 mM Tris-HCl, pH 8.0, 100 mM NaCl for 72 h at 37 C with shaking at 1000 rpm in an Eppendorf Thermomixer. […] The concentration of α-synuclein monomer in the supernatant was determined in a BCA protein assay according to the manufacturer's instructions, using a bovine serum albumin (BSA) standard curve. The measured decrease in α-synuclein monomer concentration was used to determine the concentration of fibrils in the 72 h fibril reaction mixture. […]
These direct binding assays used a fixed concentration of either fibrils or PD/AD tissue and the radioligand (e.g., [^18F]28) and varying concentration ranges of corresponding homologous non-radiolabeled standard reference compound. […] Reactions were incubated at 37° C. for 1 h before quantifying bound radioligand. […]

## COc1ccc2nc(-c3csc(C=O)c3)ccc2c1 [TZ55-81]
PD-seeded fibrils
  EC50: 46 nM
PD-seeded fibrils; Cheng-Prusoff from EC50
  Ki: 43 nM
[1]
  Kd: 29 nM

Reference: US12012394B2, “Alpha-synuclein ligands” (Washington University, priority 2018, dated 2024)
